From US9409884B2 (Rigel Pharmaceuticals, Inc., priority 2012, dated 2016) come the findings set out here.

This assay concerns the target AMPK. The assay can be described thus: AMPK activation, enzyme-linked immunosorbent assay. The settings on record: Table 14, compounds of Table 7. It is filed as biochemical. In a few lines: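 Read-out: ELISA, used to detect compound-driven activation of AMPK.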
The EC50 is the concentration that produces a half-maximal response. In the case of `COc1ccc(CN2CCC(NC(=O)c3ccc(C(=O)N4CCC(Oc5ccc(S(C)(=O)=O)c(C)c5)CC4)nc3)CC2)cc1` [Compound 7-16, N-(1-(4-methoxybenzyl)piperidin-4-yl)-6-(4-(3-methyl-4-(methylsulfonyl)phenoxy)piperidine-1-carbonyl) nicotinamide], the EC50 lay in the range of 1000 to 10000 nM.
Then `COCCN(C(=O)c1ccc(C(=O)N2CCC(C(=O)c3ccc(OC)cc3)CC2)nc1)C1CCN(Cc2ccc(C#N)cc2)CC1` [Compound 7-17, N-(1-(4-cyanobenzyl)piperidin-4-yl)-6-(4-(4-methoxybenzoyl)piperidine-1-carbonyl)-N-(2-methoxyethyl)nicotinamide], with under 1000 nM; and `COCCN(C(=O)c1ccc(C(=O)N2CCC(C(=O)c3ccc(OC)cc3)CC2)nc1)C1CCN(Cc2ccc(OC(F)(F)F)cc2)CC1` [Compound 7-18, 6-(4-(4-methoxybenzoyl)piperidine-1-carbonyl)-N-(2-methoxyethyl)-N-(1-(4-(trifluoromethoxy)benzyl)piperidin-4-yl)nicotinamide], with under 1000 nM.
`COc1ccc(C(=O)C2CCN(C(=O)c3ncc(C(=O)NC4CCN(Cc5ccc(C#N)cc5)CC4)cc3CCCNC(=O)CCOCCOCCOCCOCCNC(=O)CCCC[C@@H]3SC[C@@H]4NC(=O)N[C@@H]43)CC2)cc1` [Compound 7-19, N-(1-(4-cyanobenzyl)piperidin-4-yl)-5-(5,21-dioxo-25-((3aS,4S,6aR)-2-oxohexahydro-1H-thieno[3,4-d]imidazol-4-yl)-8,11,14,17-tetraoxa-4,20-diazapentacosyl)-6-(4-(4-methoxybenzoyl)piperidine-1-carbonyl)nicotinamide] showed an EC50 of 10000 to 20000 nM.
The figure for `CC(=O)c1ccc(Oc2ccc(NC(=O)c3ccc(C(=O)N4CCC(Oc5ccc6sc(C)nc6c5)CC4)nc3)cn2)cc1` [Compound 7-20, N-(6-(4-acetylphenoxy)pyridin-3-yl)-6-(4-(2-methylbenzo[d]thiazol-5-yloxy)piperidine-1-carbonyl)nicotinamide] is under 1000 nM.
`COc1ccc(CN2CCC(NC(=O)c3ccc(C(=O)N4CCC(C(=O)c5ccc(OC)cc5)CC4)nc3)[C@@H](F)C2)cc1` (stereo partly drawn) [Compound 7-21, N-((3,4-trans)-3-fluoro-1-(4-methoxybenzyl)piperidin-4-yl)-6-(4-(4-methoxybenzoyl)piperidine-1-carbonyl)nicotinamide] came in with an EC50 of under 1000 nM.
Then `Cc1nc2cc(OC3CCN(C(=O)c4ccc(C(=O)NC5CCN(Cc6ccc(C#N)cc6)CC5)cn4)CC3)ccc2s1` [Compound 7-22, N-(1-(4-cyanobenzyl)piperidin-4-yl)-6-(4-(2-methylbenzo[d]thiazol-5-yloxy)piperidine-1-carbonyl)nicotinamide], with under 1000 nM.
In turn, `Cc1nc2cc(OC3CCN(C(=O)c4ccc(C(=O)NC5CCN(Cc6ccc(OC(F)(F)F)cc6)CC5)cn4)CC3)ccc2s1` [Compound 7-23, 6-(4-(2-methylbenzo[d]thiazol-5-yloxy)piperidine-1-carbonyl)-N-(1-(4-(trifluoromethoxy)benzyl)piperidin-4-yl)nicotinamide] had an EC50 of under 1000 nM.
As to `COc1ccc(CN2CCC(NC(=O)c3ccc(C(=O)N4CCC(Oc5ccc6sc(C)nc6c5)CC4)nc3)CC2)cc1` [Compound 7-24, N-(1-(4-methoxybenzyl)piperidin-4-yl)-6-(4-(2-methylbenzo[d]thiazol-5-yloxy)piperidine-1-carbonyl)nicotinamide], the EC50 is under 1000 nM.
The figure for `Cc1nc2cc(OC3CCN(C(=O)c4ccc(C(=O)Nc5ccc(Oc6ccc(C#N)cc6)nc5)cn4)CC3)ccc2s1` [Compound 7-25, N-(6-(4-cyanophenoxy)pyridin-3-yl)-6-(4-(2-methylbenzo[d]thiazol-5-yloxy)piperidine-1-carbonyl)nicotinamide] is under 1000 nM.
`COc1ccc(CN2CCC(NC(=O)c3ccc(C(=O)N4CCC(C(=O)c5ccc(OC)cc5)CC4)nc3)[C@H](F)C2)cc1` (stereo partly drawn) [Compound 7-26, N-((3,4-trans)-3-fluoro-1-(4-methoxybenzyl)piperidin-4-yl)-6-(4-(4-methoxybenzoyl)piperidine-1-carbonyl)nicotinamide]: the EC50 was under 1000 nM.
